Consider one compound from US5378846A, “1,2,3,4-tetrahydropyrrolo-[1,2-a]-pyrazine derivatives” (Russian-American Institute For New Drug Development, priority 1993, dated 1995).

Entries after “also recorded” stand apart in the source; their conditions may differ. Like-named read-outs stand apart in the source and are kept apart here.

The subject of data set [1] is outbred male mice. Nature of the data set: Acute toxicity in mice. Conditions: mouse, in vivo, ip. How it is done:
(§1) Compounds according to the present invention were checked for their influence on gross behaviour. The experiments described herein (Examples 11, 12, 13, 14, and 15) were carried out using outbred male mice weighing approximately 18-24 g. Each substance was administered intraperitoneally 45 min. before the experiment. Locomotor activity was estimated individually for each animal for 3 min. using an actometer `Era-1` (Russia).
(§2) The compounds of the present invention were checked for acute toxicity in outbred male mice (18-22 g.). They were administered intraperitoneally and the lethality was estimated 24 hours later (Table 6). In the dose range of 500-1000 mg/kg i.p. Compound 1 caused death in 50% of the animals. Compound 1 is almost 5 times less toxic than other compounds.

Data set [2] in a line: Acute toxicity in mice. The note with it: mouse, in vivo, ip, mice, i.p. The procedure: as §1, §2
Data set [3] deals with C57 B1/6 mice. Nature of the data set: Open field test, C57 B1/6 mice. It is filed as in vivo, male C57 B1/6 mice. The note with it: for Central activity / Crosses of Squires / Emotionality (N. of defec.) / Total locomotor activity / Vert. stands: C57 B1/6, i.p. How it is done: ESR indices were evaluated as changes in mice ambulations, defecations and motor activity in an "open field" test ([…]., Bull. Exp. Biol. […] Compound 1 was injected in different doses intraperitoneally 45 min. before test.

As to `O=C(O)CCC(=O)O.c1cc2n(c1)CCNC2` [Compound 1, 1,2,3,4-tetrahydropyrrolo-[1,2-a]-pyrazine hydrosuccinate], the “Times less toxic than other compounds” value in data set [1] was ~5 times. Besides, in data set [2] (24 hours, read-out: Dose range causing death in 50% of the animals), the LD50 at 24 h was 500 to 1000 mg/kg. Moreover, the LD50 at 24 h in data set [2] (lethality 24 hours later, Table 6 (range in brackets beside), read-out: LD50) amounted to 1540 mg/kg. In addition, the “Open field behavior of C57 B1/6 mice, in words” value in data set [3] (5 mg/kg i.p.) was “caused the reduction of total ambulations inhibiting central and vertical activity. The number of defecations was not changed”. In addition, in data set [3] (0.1 mg/kg), the Central activity is recorded as 24.2 ± 5.2, the “Crosses of Squires” value amounted to 74.6 ± 7.6, the “Emotionality (N. of defec.)” value is on record as 1.0 ± 0.53 and the Total locomotor activity is 114.6 ± 12.1. Further, in data set [3] (0.1 mg/kg), the Vert. stands turned out to be 15.8 ± 2.5. In data set [3] (1.0 mg/kg), the Central activity is 29.9 ± 5.2, the “Crosses of Squires” value worked out at 65.6 ± 5.5, the “Emotionality (N. of defec.)” value is recorded as 0.8 ± 0.39 and the Total locomotor activity turned out to be 110.6 ± 10.9. In addition, the Vert. stands in data set [3] (1.0 mg/kg) was determined as 15.1 ± 2.0. Further, in data set [3] (5.0 mg/kg), the Central activity was 11.1 ± 1.6, the “Crosses of Squires” value is given as 51.7 ± 5.3, the “Emotionality (N. of defec.)” value was determined as 0.22 ± 0.22 and the Total locomotor activity is 71.7 ± 6.9. The compound also returned a Vert. stands in data set [3] (5.0 mg/kg) of 7.8 ± 1.5. The “Sedation in C57B1/6 mice, in words” value in data set [3] (anxiolytic dose range, open field test) is recorded as “does not cause sedation in C57B1/6 mice; also recorded: anxiolytic effect in BALB/c mice does not coincide with sedative effect in C57B 1/6 mice”.
